Test results taken from patent US11814688B2, “Markers for determining tumor hypoxia” (VIB VZW, priority 2015, dated 2023).

Tests used:
MCF7 cells = assay: LC/MS analysis of global 5hmC levels in MCF7 cells; format: cell-based, human; conditions: 24 hours
HIFs = assay: HIF stabilization and hypoxia response program (Western blot, RT-qPCR) in MCF7 cells; format: cell-based, human; conditions: IOX2 50 μM
Description: Cell culture: Cells were cultured as described in the Supplemental Experimental Procedures. […] Where indicated, IOX2 (50 μM) or dimethyl α-ketoglutarate (2 mM) were added to fresh culture medium, using an equal volume of carrier (DMSO) as control for IOX2. Cells were plated at a density tailored to reach 80-95% confluence at the end of the treatment. Fresh medium was added to the cells just before the hypoxia exposure. For glutamine-free culture experiments, dialysed FBS was added to glutamine-free DMEM, and supplemented with glutamine (4 mM) for control. Extraction of DNA, RNA, proteins or metabolites was done 24 hours after the start of treatment, unless indicated otherwise. […]
RT-qPCR: For RNA extractions, cell culture medium was removed, TRIzol (Life Technologies) added and processed according to guidelines. […] Thermal cycling and fluorescence detection were done on a LightCycler 480 Real-Time PCR System (Roche), and differential expression calculated using the ΔΔCt method (Schmittgen and Livak, 2008). […]
TET mRNA concentrations and hypoxia marker gene induction: mRNA concentration analysis and statistics: Ct values were determined for each sample and gene of interest in technical duplicates, and normalized according to the corresponding amplification efficiency. […] Concentrations were expressed as averages of at least 5 independent biological replicates. […]

PHDs = conditions: cited from earlier work
[1] = target: recombinant purified Tet1 enzyme (Mus musculus, UniProt Q3URK3); assay: DNA hydroxymethylation assay using purified TET enzyme at different O2 concentrations; conditions: conversion of 5mC to 5hmC on genomic DNA, 3 min reaction
Chain of recombinant purified Tet1 enzyme (Q3URK3 1367-2039 limits assumed): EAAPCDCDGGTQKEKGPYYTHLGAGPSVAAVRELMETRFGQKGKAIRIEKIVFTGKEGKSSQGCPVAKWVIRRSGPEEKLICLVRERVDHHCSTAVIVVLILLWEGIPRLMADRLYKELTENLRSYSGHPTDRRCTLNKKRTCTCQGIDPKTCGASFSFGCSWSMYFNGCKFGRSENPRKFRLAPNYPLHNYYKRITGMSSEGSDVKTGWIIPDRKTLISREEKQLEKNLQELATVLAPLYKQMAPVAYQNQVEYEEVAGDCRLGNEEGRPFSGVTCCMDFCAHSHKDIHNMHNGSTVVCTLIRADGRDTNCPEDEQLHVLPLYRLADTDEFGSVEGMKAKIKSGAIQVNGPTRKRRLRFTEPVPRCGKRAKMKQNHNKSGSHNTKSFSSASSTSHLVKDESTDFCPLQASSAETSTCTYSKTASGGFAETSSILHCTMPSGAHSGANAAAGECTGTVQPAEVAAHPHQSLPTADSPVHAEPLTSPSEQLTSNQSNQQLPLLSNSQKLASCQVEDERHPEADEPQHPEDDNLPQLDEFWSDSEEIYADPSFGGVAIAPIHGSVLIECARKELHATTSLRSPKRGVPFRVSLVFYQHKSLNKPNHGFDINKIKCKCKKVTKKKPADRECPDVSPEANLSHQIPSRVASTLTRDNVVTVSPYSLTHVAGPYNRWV

[2] = test system: breast tumors of MMTV-PyMT mice; assay: sFlk1 overexpression by hydrodynamic plasmid injection in MMTV-PyMT mice; format: in vivo, mouse
Description: Murine cancer models: Animal experiments received local ethical approval (P098/2014). Animals were intercrossed and maintained as described in Supplemental Experimental Procedures. Mammary tumors were harvested at 16 weeks from Tg(MMTV-PyMT) and Tg(MMTV-PyMT); Phd2−/+ mice. For Flk1-overexpression studies, tumors allowed to develop for 11 weeks. Subsequently, 2.5 μg of plasmid (sFlk1-overexpressing or empty p156RRL2 vector) per gram of mouse body weight was introduced in the blood stream using hydrodynamic injections (Liu et al., 1999). sFlk1 overexpression was monitored at 4 days after injection and at sacrifice ([…]), by eye bleeds followed by an enzyme-linked immunosorbent assay for sFlk1 (R&D Systems, Abingdon, UK) in blood plasma. At 12 weeks of age, mice were sacrificed and mammary tumors harvested blinded for treatment. For the Phd2^+/− experiments, male Tg(MMTV-PyMT) FVB mice were intercrossed with female Phd2^−/+ mice, yielding litters of which half have either a Tg(MMTV-PyMT) genotype or a Tg(MMTV-PyMT); Phd2^−/+ genotype. For the Phd2^wt/fl experiments, male Tg(MMTV-PyMT) FVB mice were intercrossed with female Tie2-cre; Phd2^wt/fl mice as described (Kuchnio et al 2015), yielding litters of which half have either a Tie2-cre; Tg(MMTV-PyMT); Phd2^wt/wt genotype or a Tie2-cre; Tg(MMTV-PyMT); Phd2^−/+ genotype. At 16 weeks of age, female mice were sacrificed and mammary tumors harvested.
Targeted deep BS-seq: As no murine capture kit was available for targeted BSseq, a specific ampliconBS was developed for a set of 15 tumor suppressor gene promoters and 5 oncogene promoters. More specifically, DNA was bisulfite-converted using the Imprint DNA modification kit and amplified using the MegaMix Gold 2× mastermix and validated primer pairs. Per sample, PCR products were mixed to equimolar concentrations, converted into sequencing libraries using the NEBNext DNA library prep master mix set and sequenced to a depth of ˜500×. Mapping and quantification were done as described for SeqCapEpi. The average and variance of methylation level M values in normal mammary glands were used as baseline, and amplicons displaying over 3 standard deviations more methylation (FDR-adjusted P<0.05) than this baseline were called as hypermethylated. At least 9 different tumors, each from different animals, were profiled per genotype or treatment, and differences in HM frequencies between sets of tumors were assessed using Mann-Whitney's U-test.
Immunofluorescence staining: To mark hypoxic areas, mice were injected with pimonidazole (60 mg/kg, Hypoxyprobe, Massachusetts, USA) i.p. 1 hour before sacrifice. Tumors were harvested, fixed in formaldehyde and embedded in paraffin using standard procedures. Slides were deparafinated and rehydrated 2 xylene baths (5 minutes), followed by 5 times 3 minutes in EtOH baths at decreasing concentrations (100%, 96%, 70%, 50% and water) and a 3 minute Tris-buffered saline (TBS; 50 mM Tris, 150 mM NaCl, pH 7.6) bath. The following antibodies were used for immunofluorescence staining: primary antibodies were FITC-conjugated mouse anti-pimonidazole (HP2-100, Hydroxyprobe), rabbit anti-5hmC (39791, Active Motif), rat anti-polyoma middle T (AB15085, Abcam), rat anti-CD31 (557355, BD Biosciences), rat anti-CD45 (553076, BD Biosciences), rabbit anti-Ki67 (AB15580, Abcam) and mouse anti-pan cytokeratin (C2562, Sigma). […]

## O=C(O)CNC(=O)c1c(O)c2ccccc2n(Cc2ccccc2)c1=O [IOX2]
MCF7 cells; IOX2 50 μM, carrier DMSO as control
  changes in global 5hmC levels: no changes
HIFs
  HIF stabilization and activation of the hypoxia response program: sufficient to stabilize HIFs and activate the hypoxia response program
PHDs
  specificity for PHDs over other αKG-dependent dioxygenases: high specificity

## O=O [oxygen]
[1]
  Km of Tet1 for oxygen: ~0.3 % O2

## COC(=O)CCC(=O)C(=O)OC [αKG, dimethyl α-ketoglutarate]
MCF7 cells; dimethyl α-ketoglutarate 2 mM added to medium
  changes in global 5hmC levels: Neither of these conditions however altered 5hmC levels

B1: sFlk1: soluble Flk1, VEGF inhibitor, overexpressed from a hydrodynamically injected plasmid (protein, UniProt P35918 20-762, looked up)
extracellular domain: ASVGLPGDFLHPPKLSTQKDILTILANTTLQITCRGQRDLDWLWPNAQRDSEERVLVTECGGGDSIFCKTLTIPRVVGNDTGAYKCSYRDVDIASTVYVYVRDYRSPFIASVSDQHGIVYITENKNKTVVIPCRGSISNLNVSLCARYPEKRFVPDGNRISWDSEIGFTLPSYMISYAGMVFCEAKINDETYQSIMYIVVVVGYRIYDVILSPPHEIELSAGEKLVLNCTARTELNVGLDFTWHSPPSKSHHKKIVNRDVKPFPGTVAKMFLSTLTIESVTKSDQGEYTCVASSGRMIKRNRTFVRVHTKPFIAFGSGMKSLVEATVGSQVRIPVKYLSYPAPDIKWYRNGRPIESNYTMIVGDELTIMEVTERDAGNYTVILTNPISMEKQSHMVSLVVNVPPQIGEKALISPMDSYQYGTMQTLTCTVYANPPLHHIQWYWQLEEACSYRPGQTSPYACKEWRHVEDFQGGNKIEVTKNQYALIEGKNKTVSTLVIQAANVSALYKCEAINKAGRGERVISFHVIRGPEITVQPAAQPTEQESVSLLCTADRNTFENLTWYKLGSQATSVHMGESLTPVCKNLDALWKLNGTMFSNSTNDILIVAFQNASLQDQGDYVCSAQDKKTKKRHCLVKQLIILERMAPMITGNLENQTTTIGETIEVTCPASGNPTPHITWFKDNETLVEDSGIVLRDGNRNLTIRRVRKEDGGLYTCQACNVLGCARAETLFIIEGAQEKTNLE
modifications: extracellular domain
[2]; after sFlk1 treatment, 20% in control
  tumor hypoxia (hypoxic area): 47%
[2]; deep BS-sequencing, panel of 15 TSG promoters
  TSGs hypermethylated relative to control in at least one out of 24 hypoxic tumors: 10 out of 15
[2]; deep BS-sequencing, sFlk-treated tumors
  hypermethylation of oncogene promoters: failed to display the same increase
[2]; during 3 weeks after hydrodynamic injection of sFlk1-expressing plasmid, versus empty plasmid
  increase in plasma sFlk1 concentrations: > 11 fold
[2]; tumor vasculature, sFlk1-treated mice
  reduction in vessel density: 42±10%
